Among the data in patent US12054494B2, “Compound with anticancer activity” (KYOWA KIRIN CO., LTD., priority 2018, dated 2024) are IC90 values, retold here.

Molecules are shown by their SMILES.

In general, IC90 refers to the concentration needed for an effect of 90%.

The test system of this assay is SU-DHL-4 cells. As to the kind of experiment: Inhibitory effect on cell viability (Cell Counting Kit-8). Conditions: Homo sapiens, 72 hours culture with test compound, concentration showing 90% inhibition rate of cell viability. Format: cell-based. As to the method:
Inhibitiory Effect on Cell Viability
SU-DHL-4 cells (Code No. ACC 495, Deutsche Sammlung von Mikroorganismen and Zellkulturen GmbH) were cultured at 37° C. using a carbon dioxide incubator (95% air, 5% CO2) in RPMI1640 medium (Code No. 11875-093, Thermo Fisher Scientific) in which inactivated fetal bovine serum (FBS: Code No. 10099-148, Thermo Fisher Scientific) in an amount to give a final concentration of 10 vol % and penicillin/streptomycin solution (PS: Code No. 15140-122, Thermo Fisher Scientific) in an amount to give a final concentration of 1 vol % were added. The cells were passaged twice a week at a volume of 20-40 mL so as to maintain a cell concentration of 1×10^6 cells/mL or less.
The cultured SU-DHL-4 cells were seeded at 2000 cells/well in a transparent 384-well plate (Code No. 781182, Greiner bio-one). After seeding, the cells were precultured at 37° C. in a carbon dioxide gas incubator for 18 to 25 hours. Next, 1, 0.1 or 0.01 mmol/L DMSO solution of the test compound was prepared and a 9-step dilution series were prepared so that the concentration will be 200 times the final concentration in the RPMI1640 medium containing the above FBS and PS, and 1/200 volume of the dilution series were added to each well. At this time, the final concentration of DMSO was adjusted to be 0.1 vol %. After adding the test compound, the cells were cultured at 37° C. in a carbon dioxide gas incubator for 72 hours. Next, 0.020 mL of Cell Counting Kit-8 (Code No. CK04, DOJINDO) solution diluted 2-fold or 4-fold with phosphate buffered saline (PBS) was added to each well. Color reaction was carried out in a carbon dioxide gas incubator at 37° C. for 2 to 3 hours, and the absorbance at a wavelength of 450 nm was measured using SpectraMax 340PC (Molecular Devices). The inhibition rate of cell viability was calculated by the following formula, and the concentration of the test compound (IC90 value) showing a 90% inhibition rate of cell viability was calculated. Inhibition rate of cell viability (%)=100−(A−B)/(C−B)×100 • A: Absorbance of a well containing test compound • B: Absorbance of a well without addition of cells • C: Absorbance of a well without addition of test compound
In general terms: Tetrazolium dyes change colour on reduction, which living cells bring about.
Take `CCC(=O)N1c2ccccc2[C@H](Nc2ccc(NC(=O)C3CCN(C(=O)c4ccc(N[C@@H]5C[C@H](C)N(C(=O)CC)c6ccccc65)cc4)CC3)cc2)C[C@@H]1C` (relative stereo) [Compound 2g, 1-(4-{[(2S,4R)-2-Methyl-1-propionyl-1,2,3,4-tetrahydroquinolin-4-yl]amino}benzoyl)-N-(4-{[(2S*,4R*)-2-methyl-1-propionyl-1,2,3,4-tetrahydroquinolin-4-yl]amino}phenyl)piperidine-4-carboxamide]: the IC90 amounted to 0.63 nM.

As to `CCC(=O)N1c2ccccc2[C@H](Nc2ccc(NC(=O)C3CN(C(=O)c4ccc(N[C@@H]5C[C@H](C)N(C(=O)CC)c6ccccc65)cc4)C3)cc2)C[C@@H]1C` (relative stereo) [Compound 2h, 1-(4-{[(2S,4R)-2-Methyl-1-propionyl-1,2,3,4-tetrahydroquinolin-4-yl]amino}benzoyl)-N-(4-{[(2S*,4R*)-2-methyl-1-propionyl-1,2,3,4-tetrahydroquinolin-4-yl]amino}phenyl)azetidine-3-carboxamide], it took 0.03 nM to reach the 90% level (IC90).

Molecule `CCC(=O)N1c2ccccc2[C@H](Nc2ccc(NC(=O)[C@@H]3CCN(C(=O)c4ccc(N[C@@H]5C[C@H](C)N(C(=O)CC)c6ccccc65)cc4)C3)cc2)C[C@@H]1C` (relative stereo) [Compound 2i, (R)-1-(4-{[(2S,4R)-2-Methyl-1-propionyl-1,2,3,4-tetrahydroquinolin-4-yl]amino}benzoyl)-N-(4-{[(2S*,4R*)-2-methyl-1-propionyl-1,2,3,4-tetrahydroquinolin-4-yl]amino}phenyl)pyrrolidine-3-carboxamide] gave an IC90 of 1.84 nM.

`CCC(=O)N1c2ccccc2[C@H](Nc2ccc(NC(=O)CC(C)CC(=O)Nc3ccc(N[C@@H]4C[C@H](C)N(C(=O)CC)c5ccccc54)cc3)cc2)C[C@@H]1C` (relative stereo) [Compound 4b, 3-Methyl-N^1,N^5-bis(4-{[(2S*,4R*)-2-methyl-1-propionyl-1,2,3,4-tetrahydroquinolin-4-yl]amino}phenyl)pentanediamide] displayed an IC90 of 5.87 nM.

`CCC(=O)N1c2ccccc2[C@H](Nc2ccc(NS(=O)(=O)c3cccc(NC(=O)c4ccc(N[C@@H]5C[C@H](C)N(C(=O)CC)c6ccccc65)cc4)c3)cc2)C[C@@H]1C` (relative stereo) [Compound 4c, 4-{[(2S,4R)-2-Methyl-1-propionyl-1,2,3,4-tetrahydroquinolin-4-yl]amino}-N-{3-[N-(4-{[(2S*,4R*)-2-methyl-1-propionyl-1,2,3,4-tetrahydroquinolin-4-yl]amino}phenyl)sulfamoyl]phenyl}benzamide] yielded an IC90 of 4.03 nM.

As for `CCC(=O)N1c2ccccc2[C@H](Nc2ccc(NC(=O)CCSc3ccc(N[C@@H]4C[C@H](C)N(C(=O)CC)c5ccccc54)cc3)cc2)C[C@@H]1C` (relative stereo) [Compound 4e, N-(4-{[(2S*,4R*)-2-Methyl-1-propionyl-1,2,3,4-tetrahydroquinolin-4-yl]amino}phenyl)-3-[(4-{[(2S,4R)-2-methyl-1-propionyl-1,2,3,4-tetrahydroquinolin-4-yl]amino}phenyl)thio]propanamide], the 90% effect level (IC90) was put at 0.34 nM.

`CCC(=O)N1c2ccccc2[C@H](Nc2ccc(NC(=O)Cc3cn(-c4ccc(N[C@@H]5C[C@H](C)N(C(=O)CC)c6ccccc65)cc4)nn3)cc2)C[C@@H]1C` (relative stereo) [Compound 6i, N-(4-(((2S*,4R*)-2-Methyl-1-propionyl-1,2,3,4-tetrahydroquinolin-4-yl)amino)phenyl)-2-(1-(4-(((2S*,4R*)-2-methyl-1-propionyl-1,2,3,4-tetrahydroquinolin-4-yl)amino)phenyl)-1H-1,2,3-triazol-4-yl)acetamide] yielded an IC90 of 0.11 nM.

Molecule `CCC(=O)N1c2ccccc2[C@H](Nc2ccc(NC(=O)NCCNC(=O)c3ccc(N[C@@H]4C[C@H](C)N(C(=O)CC)c5ccccc54)cc3)cc2)C[C@@H]1C` (relative stereo) [Compound 6l, 4-(((2S,4R)-2-Methyl-1-propionyl-1,2,3,4-tetrahydroquinolin-4-yl)amino)-N-(2-(3-(4-(((2S*,4R*)-2-methyl-1-propionyl-1,2,3,4-tetrahydroquinolin-4-yl)amino)phenyl)ureido)ethyl)benzamide] displayed a 90% effect concentration (IC90) of 0.35 nM. Against the preceding molecule, the IC90 is about 3.2-fold higher.

In turn, `CCC(=O)N1c2ccccc2[C@H](Nc2ccc(NC(=O)N3CCN(C(=O)c4ccc(N[C@@H]5C[C@H](C)N(C(=O)CC)c6ccccc65)cc4)CC3)cc2)C[C@@H]1C` (relative stereo) [Compound 6m, 4-(4-(((2S,4R)-2-Methyl-1-propionyl-1,2,3,4-tetrahydroquinolin-4-yl)amino)benzoyl)-N-(4-(((2S*,4R*)-2-methyl-1-propionyl-1,2,3,4-tetrahydroquinolin-4-yl)amino)phenyl)piperazine-1-carboxamide] had a concentration for an effect of 90% (IC90) of 0.12 nM. Against the preceding molecule, the IC90 is about 2.9-fold lower.

Regarding `CCC(=O)N1c2ccccc2[C@H](Nc2ccc(NC(=O)Cn3cc(-c4ccc(N[C@@H]5C[C@H](C)N(C(=O)CC)c6ccccc65)cc4)cn3)cc2)C[C@@H]1C` (relative stereo) [Compound 6n, N-(4-(((2S*,4R*)-2-Methyl-1-propionyl-1,2,3,4-tetrahydroquinolin-4-yl)amino)phenyl)-2-(4-(4-(((2S,4R)-2-methyl-1-propionyl-1,2,3,4-tetrahydroquinolin-4-yl)amino)phenyl)-1H-pyrazol-1-yl)acetamide], the IC90 is 0.13 nM.

`CCC(=O)N1c2ccccc2[C@H](Nc2ccc(-n3cc(CNC(=O)N4CCC(N[C@@H]5C[C@H](C)N(C(=O)CC)c6ccccc65)CC4)nn3)cc2)C[C@@H]1C` (relative stereo) [Compound 10b, 4-(((2S*,4R*)-2-Methyl-1-propionyl-1,2,3,4-tetrahydroquinolin-4-yl)amino)-N-((1-(4-(((2S,4R)-2-methyl-1-propionyl-1,2,3,4-tetrahydroquinolin-4-yl)amino)phenyl)-1H-1,2,3-triazol-4-yl)methyl)piperidine-1-carboxamide] yielded an IC90 of 0.6 nM.

Molecule `CCC(=O)N1c2ccccc2[C@H](Nc2ccc(-c3cnn(CCNC(=O)N4CCC(N[C@@H]5C[C@H](C)N(C(=O)CC)c6ccccc65)CC4)c3)cc2)C[C@@H]1C` (relative stereo) [Compound 10d, 4-(((2S*,4R*)-2-Methyl-1-propionyl-1,2,3,4-tetrahydroquinolin-4-yl)amino)-N-(2-(4-(4-(((2S,4R)-2-methyl-1-propionyl-1,2,3,4-tetrahydroquinolin-4-yl)amino)phenyl)-1H-pyrazol-1-yl)ethyl)piperidine-1-carboxamide] yielded an IC90 of 3.42 nM.

For the molecule `CCC(=O)N1c2ccccc2[C@H](Nc2ccc(NC(=O)C3CN(C(=O)N4CCC(N[C@@H]5C[C@H](C)N(C(=O)CC)c6ccccc65)CC4)C3)cc2)C[C@@H]1C` (relative stereo) [Compound 10e, N-(4-(((2S*,4R*)-2-Methyl-1-propionyl-1,2,3,4-tetrahydroquinolin-4-yl)amino)phenyl)-1-(4-(((2S,4R)-2-methyl-1-propionyl-1,2,3,4-tetrahydroquinolin-4-yl)amino)piperidine-1-carbonyl)azetidine-3-carboxamide], it took 3.59 nM to reach the 90% level (IC90).

As for `CCC(=O)N1c2ccccc2[C@H](NCc2ccc(C(=O)N3CC(C(=O)Nc4ccc(N[C@@H]5C[C@H](C)N(C(=O)CC)c6ccccc65)cc4)C3)cc2)C[C@@H]1C` (relative stereo) [Compound 10g, 1-(4-((((2S*,4R*)-2-Methyl-1-propionyl-1,2,3,4-tetrahydroquinolin-4-yl)amino)methyl)benzoyl)-N-(4-(((2S,4R)-2-methyl-1-propionyl-1,2,3,4-tetrahydroquinolin-4-yl)amino)phenyl)azetidine-3-carboxamide], the IC90 was 1.15 nM.

As for `CCC(=O)N1c2ccccc2[C@H](Nc2ccc(CNCc3cn(-c4ccc(N[C@@H]5C[C@H](C)N(C(=O)CC)c6ccccc65)nc4)nn3)cc2)C[C@@H]1C` (relative stereo) [Compound 10j, 1-((2S,4R)-2-Methyl-4-((4-((((1-(6-(((2S*,4R*)-2-methyl-1-propionyl-1,2,3,4-tetrahydroquinolin-4-yl)amino)pyridin-3-yl)-1H-1,2,3-triazol-4-yl)methyl)amino)methyl)phenyl)amino)-3,4-dihydroquinoline-1(2H)-yl)propan-1-one], the IC90 came out at 1.73 nM.

`CCC(=O)N1c2ccccc2[C@H](Nc2ccc(NC(=O)CCCC(=O)Nc3ccc(N[C@@H]4C[C@H](C)N(C(=O)CC)c5ccccc54)cn3)cc2)C[C@@H]1C` (relative stereo) [Compound 10l, N^1-(4-(((2S,4R)-2-Methyl-1-propionyl-1,2,3,4-tetrahydroquinolin-4-yl)amino)phenyl)-N^5-(5-(((2S*,4R*)-2-methyl-1-propionyl-1,2,3,4-tetrahydroquinolin-4-yl)amino)pyridin-2-yl)glutaramide] yielded an IC90 of 1.08 nM. This IC90 is about 1.6-fold lower than that of the molecule before.
